Assays:
mice (CF-1 strain) [1] = assay: Maximal ElectroShock (MES) test for anticonvulsants; format: in vivo; details: dosed orally
Description: The therapeutic use of the compounds claimed in the present invention as anticonvulsants has been proven by the “Maximal ElectroShock (MES)” test, which is a well-established pharmacological screening method for anticonvulsants against partial seizures, and the results are presented in Table 1. The procedure employed in the MES test for anticonvulsants follows. The compound dosing, solutions were prepared in saline, and the subject, namely, mice (CF-1 strain), were dosed orally. After the designated number of hours, maximal electroshock was induced in mice via corneal electrodes using IITC Life Science model 11A Shocker at 50 mA-60 Hz for […]. Upon inducing, maximal electroshock, the elimination of hindlimb tonic extension was considered as providing evidence of the protection by an anticonvulsant. Median efficacy dose (ED50) levels were determined using three different dose levels with at least 6 mice in each group.

mice (CF-1 strain) [2] = assay: as above; format: in vivo; details: ip, Hour 1, elimination of hindlimb tonic extension
[3] = Hour 1, elimination of hindlimb tonic extension
[4] = Hour 4, elimination of hindlimb tonic extension

Molecule: NC(=O)OCC(O)c1ccccc1Cl (stereo not drawn) [Entry 1, (DL)-(2-(2-chlorophenyl)-2-hydroxyethyl)oxocarboxamide]
- ED50 (mice (CF-1 strain) [1]; [3]): 33.7 mg/kg

Molecule: NC(=O)OCC(OC(N)=O)c1ccccc1Cl (stereo not drawn) [Entry 5, (DL)-(2-(2-Chlorophenyl)-2-carbamoyloxyethyl)oxocarboxamide]
- ED50 (mice (CF-1 strain) [1]; [3]): 25 mg/kg

Molecule: NC(=O)OCC(OC(N)=O)c1ccc(Cl)cc1 (stereo not drawn) [Entry 8, (DL)-(2-(4-Chlorophenyl)-2-carbamoyloxyethyl)oxocarboxamide]
- ED50 (mice (CF-1 strain) [1]; [3]): 29.1 mg/kg

Molecule: NC(=O)OCC(OC(N)=O)c1c(Cl)cccc1Cl (stereo not drawn) [Entry 11, (DL)-(2-(2,6-dichlorophenyl)-2-carbamoyloxyethyl)-oxocarboxamide]
- ED50 (mice (CF-1 strain) [1]; [3]): 7.4 mg/kg

Molecule: NC(=O)OC[C@H](OC(N)=O)c1ccccc1Cl [Entry 13, (R)-(2-(2-Chlorophenyl)-2-N-carbamoyloxyethyl)oxocarboxamide]
- ED50 (mice (CF-1 strain) [1]; [4]): 8.9 mg/kg

Molecule: CNC(=O)OC[C@H](OC(=O)NC)c1ccccc1Cl [Entry 14]
- ED50 (mice (CF-1 strain) [1]; [4]): >20 mg/kg

Molecule: CC(C)NC(=O)OC[C@H](OC(=O)NC(C)C)c1ccccc1Cl [Entry 15]
- ED50 (mg/Kg) (mice (CF-1 strain) [2]): ≈10 (ip) mg/Kg

Molecule: O=C(Nc1ccccc1)OC[C@H](OC(=O)Nc1ccccc1)c1ccccc1Cl [Entry 16, (R)-N-Phenyl(2-(2-chlorophenyl)-2-N-phenylcarbamoyloxyethyl)-oxocarboxamide]
- ED50 (mice (CF-1 strain) [1]; [4]): >20 mg/kg

Molecule: O=C(NCc1ccccc1)OC[C@H](OC(=O)NCc1ccccc1)c1ccccc1Cl [Entry 17, (R)-N-Benzyl(2-(2-chlorophenyl)-2-N-benzylcarbamoyloxyethyl)-oxocarboxamide]
- ED50 (mice (CF-1 strain) [1]; [4]): >20 mg/kg

Molecule: (R)-(2-(2,6-Dichlorophenyl)-carbamoyloxyethyl)oxocarboxamide [Entry 12]
- ED50 (mice (CF-1 strain) [1]; [3]): 10.7 mg/kg

Molecule: (R)-(2-(2-Chlorophenyl)-2-carbamoyloxyethyl)oxocarboxamide [Entry 6]
- ED50 (mice (CF-1 strain) [1]; [3]): 16.0 mg/kg

Molecule: (R)-(2-(2-Chlorophenyl)-2-hydroxyethyl)oxocarboxamide [Entry 3]
- ED50 (mice (CF-1 strain) [1]; [3]): 50.0 mg/kg

Molecule: (R)-(2-(4-Chlorophenyl)-2-carbamoyloxyethyl)oxocarboxamide [Entry 9]
- ED50 (mice (CF-1 strain) [1]; [3]): 26.2 mg/kg

Molecule: (S)-(2-(2-Chlorophenyl)-2-carbamoyloxyethyl)oxocarboxamide [Entry 7]
- ED50 (mice (CF-1 strain) [1]; [3]): 22.0 mg/kg

Molecule: (S)-(2-(2-chlorophenyl)-2-hydroxyethyl)oxocarboxamide [Entry 2]
- ED50 (mice (CF-1 strain) [1]; [3]): 13.0 mg/kg

Molecule: (S)-(2-(4-Chlorophenyl)-2-carbamoyloxyethyl)oxocarboxamide [Entry 10]
- ED50 (mice (CF-1 strain) [1]; [4]): 21.5 mg/kg
